Results as given in ChEMBL document CHEMBL1154012, “Synthesis and SAR of novel tricyclic quinoxalinone inhibitors of poly(ADP-ribose)polymerase-1 (PARP-1)” (Bioorg Med Chem Lett, 2009).

Assays:
[1] = target: T1, Poly [ADP-ribose] polymerase 1 (Homo sapiens, UniProt P09874)
Description: Inhibition of PARP1 by microplate scintillation counting

[2] = target: T1, Poly [ADP-ribose] polymerase 1; remark: listed apart in the source
Description: Inhibition of PARP1 in human C41 cells by DAPI staining-based FITC analysis

T1 sequence (P09874 whole entry): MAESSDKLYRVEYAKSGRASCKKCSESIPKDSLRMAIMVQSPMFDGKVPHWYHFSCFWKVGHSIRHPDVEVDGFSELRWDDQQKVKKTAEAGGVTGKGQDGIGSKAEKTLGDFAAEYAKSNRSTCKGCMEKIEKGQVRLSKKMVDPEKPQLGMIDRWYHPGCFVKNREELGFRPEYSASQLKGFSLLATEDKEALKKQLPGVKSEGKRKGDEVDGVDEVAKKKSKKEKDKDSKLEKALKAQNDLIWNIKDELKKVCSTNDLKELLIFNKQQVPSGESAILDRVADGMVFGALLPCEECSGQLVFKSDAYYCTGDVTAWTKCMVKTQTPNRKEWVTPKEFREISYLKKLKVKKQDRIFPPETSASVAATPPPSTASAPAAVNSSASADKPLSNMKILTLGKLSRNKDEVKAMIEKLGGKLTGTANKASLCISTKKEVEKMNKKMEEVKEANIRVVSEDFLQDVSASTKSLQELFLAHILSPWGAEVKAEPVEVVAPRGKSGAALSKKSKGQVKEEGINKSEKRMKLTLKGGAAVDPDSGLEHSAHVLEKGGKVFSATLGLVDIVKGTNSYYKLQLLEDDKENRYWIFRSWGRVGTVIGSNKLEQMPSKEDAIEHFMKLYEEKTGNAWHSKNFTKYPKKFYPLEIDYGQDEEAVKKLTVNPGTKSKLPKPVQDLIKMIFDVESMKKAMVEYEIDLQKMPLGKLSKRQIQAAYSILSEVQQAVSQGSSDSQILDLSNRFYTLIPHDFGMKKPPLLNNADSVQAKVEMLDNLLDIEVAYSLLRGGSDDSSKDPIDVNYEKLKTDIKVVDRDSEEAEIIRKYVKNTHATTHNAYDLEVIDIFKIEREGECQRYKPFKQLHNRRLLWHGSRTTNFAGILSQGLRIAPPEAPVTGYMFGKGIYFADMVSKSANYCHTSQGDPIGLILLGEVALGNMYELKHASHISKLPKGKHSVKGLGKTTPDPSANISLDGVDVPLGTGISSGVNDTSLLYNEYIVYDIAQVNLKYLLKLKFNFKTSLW

| Structure (SMILES) | Ki [1] | EC50 [2] |
| --- | --- | --- |
| CN(C)Cc1ccc2c(c1)NC(=O)C1CCCN21 (stereo not drawn) | 0.19 µM | 0.646 µM |
| O=c1[nH]c2ccc(CN3CCCCC3)cc2n2cccc12 |  | 0.031 µM |
| O=c1[nH]c2cc(CN3CCCC3)ccc2n2cccc12 |  | 0.006 µM |

More lines, now with the values ahead:

| Ki [1] | EC50 [2] | Structure (SMILES) |
| --- | --- | --- |
| 0.031 µM | 0.025 µM | O=c1[nH]c2ccc(CNC3CC3)cc2n2cccc12 |
| 0.161 µM | 0.164 µM | O=c1[nH]c2cc(CNCc3ccccc3)ccc2n2cccc12 |
